# Tests used:
# EAE model rats [1] = assay: Preventive continuous administration into the subarachnoid cavity of EAE model rats, pain threshold; type: in vivo, rat; conditions: preventive continuous administration into the subarachnoid cavity 10 nmol/5 μL/hr for about 14 days, FIG. 5
# Protocol: A polystyrene catheter having an external diameter of 0.30 mm was detained in the subarachnoid cavity in each of 10 weeks old LEW/CrlCrlj female rats. After about one week from the detainment of the catheter for administration in the subarachnoid cavity, EAE model rats were prepared by the same method as that of Example 2.
# EAE model animals = conditions: reported in the literature; cited from earlier work
# EAE model rats [2] = assay: Preventive repetitive oral administration to EAE model rats, pain threshold (von Frey, up-down method), symptoms (EAE score), weight; type: in vivo, rat; conditions: orally twice a day 10 mg/kg over 22 days from Day 0, von Frey 50% pain threshold, FIG. 3
# Protocol: (§1) EAE model rats were prepared by the same method as that of Example 2. […] For symptom observation, behaviors of the animals allowed to freely act were scored in accordance with the criteria shown in Table 111. The pain threshold was measured after the animals were put into a cage for measurement of which floor is made of a wire gauze, and acclimatized in the environment for 20 minutes or longer. The measurement of the pain threshold was performed according to the method of Chaplan et al. using 7 of von Frey filaments giving different stimulation intensities, and the 50% pain threshold was calculated by the up-down method of Dixon.
# EAE model rats [3] = assay: Therapeutic repetitive oral administration to EAE model rats, pain threshold; type: in vivo, rat; conditions: orally twice a day 10 mg/kg over 21 days from Day 10 (average EAE score 2 or larger), FIG. 4
# Protocol: as §1
# EAE model rats were prepared by the same method as that of Example 2.
compound,measurement,setting,value
"O=C1CC(=O)N(c2cccc(-c3nnn[nH]3)c2)c2ccc3ccccc3c2N1.[Na] [compound B, 5-[3-(1H-tetrazol-5-yl)phenyl]-1H-naphtho[1,2-b][1,4]diazepine-2,4(3H,5H)-dione sodium salt]",influence on the pain threshold (mechanical allodynia induced by EAE),EAE model rats [1],suppressed mechanical allodynia induced by EAE
CN1CC[C@]23c4c5ccc(O)c4O[C@H]2[C@@H](O)C=C[C@H]3[C@H]1C5 [morphine],analgesic action in allodynia observed in the EAE model,EAE model animals,markedly decreases
"O=C1CC(=O)N(c2ccc(NC(=O)c3ccccc3I)cc2)c2ccc3ccccc3c2N1 [compound A, 5-[4-(2-iodobenzoyl)aminophenyl]-1H-naphtho[1,2-b][1,4]diazepine-2,4(3H,5H)-dione]",influence on the pain threshold (mechanical allodynia induced by EAE),EAE model rats [2],continuously suppressed mechanical allodynia induced by EAE
same,influence on the pain threshold (mechanical allodynia induced by EAE),EAE model rats [3],suppressed mechanical allodynia induced by EAE
